From US20220280579A1, “Formulations for Prevention or Reduction of C. Difficile Infections” (priority 2019, published 2022)
“And” between values parts separate entries of the source, which are not always exact repeats. Equal values may be shown once.

Test system: CD strain 630
Test: Example 7: Holloway model of CDI, GlcNAc or glucosamine in drinking water
Details: for Ethanol resistant CFU, CFU/g faeces: individual mice

SMILES	Water consumption: Daily consumption per mouse (20 mg/ml in drinking water)	Ethanol resistant CFU, CFU/g faeces (20 mg/ml in drinking water, hydrochloride)	Water consumption: Daily consumption per mouse (50 mg/ml in drinking water)	Ethanol resistant CFU, CFU/g faeces (50 mg/ml in drinking water)	Water consumption: Daily consumption per mouse (100 mg/ml in drinking water)	Ethanol resistant CFU, CFU/g faeces (100 mg/ml in drinking water, hydrochloride)	CD colonisation (levels as low as 20 mg/ml in drinking water, summary in words)	CD infections (CDI) in mice (water containing 20 mg/ml, conclusion in words)	CD colonisation (mouse, in vivo)	CD infections (CDI) in mice (mouse, in vivo)
Cl.N[C@H]1C(O)O[C@H](CO)[C@@H](O)[C@@H]1O (stereo partly shown) [Glucosamine, Glucosamine hydrochloride]	4.2 mL	0.00E+00 CFU/g faeces (5×) and 1.90E+06 CFU/g faeces	2.8 mL	0.00E+00 CFU/g faeces	1 mL	0.00E+00 CFU/g faeces (4×) and 1.70E+05 CFU/g faeces and 8.00E+04 CFU/g faeces	could suppress CD colonisation	prevented CD infections	–	–
CC(=O)N[C@H]1C(O)O[C@H](CO)[C@@H](O)[C@@H]1O (stereo partly shown) [GlcNAc, N-acetyl-glucosamine]	–	–	–	–	–	–	–	–	could suppress CD colonisation	prevented CD infections
